Patent publication US20240132484A1, “BROAD SPECTRUM ANTIVIRAL COMPOUNDS TARGETING THE SKI COMPLEX” (priority 2020, published 2024)
Several values for one entry are separate records, joined by “and”; a condition that tells them apart may be missing. Equal values may be shown once. Entries after “also recorded” stand apart in the source; their conditions may differ. Read-outs that look alike come from different tables or passages of the source.

Assays:
SARS2 = type: cell-based, SARS-CoV-2; settings: for Percentage Inhibition Average 1 μM / Screening data (Relative infection to DMSO controls) Average 1 μM: SARS2, 1 μM; for Screening data (Relative infection to DMSO controls) Average 1 μM / Screening data (Relative infection to DMSO controls) Average 5 μM / Screening data (Relative infection to DMSO controls) Average 10 μM / Screening data (Relative infection to DMSO controls) Average 25 μM / Screening data (Relative infection to DMSO controls) Average 50 μM / Average (relative infection to DMSO over the 5 tested concentrations): 100=DMSO control; for Percentage Inhibition Average 5 μM / Screening data (Relative infection to DMSO controls) Average 5 μM: SARS2, 5 μM; for Percentage Inhibition Average 10 μM / Screening data (Relative infection to DMSO controls) Average 10 μM: SARS2, 10 μM; for Percentage Inhibition Average 25 μM / Screening data (Relative infection to DMSO controls) Average 25 μM: SARS2, 25 μM; for Percentage Inhibition Average 50 μM / Screening data (Relative infection to DMSO controls) Average 50 μM: SARS2, 50 μM; for Average (relative infection to DMSO over the 5 tested concentrations): SARS2, average over 1 to 50 uM
cells (nuclei count) = settings: for Relative cell count to DMSO controls, Average 1 μM / Relative cell count to DMSO controls, Average 5 μM / Relative cell count to DMSO controls, Average 10 μM / Relative cell count to DMSO controls, Average 25 μM / Relative cell count to DMSO controls, Average 50 μM: toxicity data, 100=DMSO control; for Toxicity Data, Average, Mean: average of Exp 1-3 (SMW475, SMW477, SMW478); for Relative cell count to DMSO controls, Average (for correlation analysis): average value over the 5 tested concentrations (1 to 50 uM); for Toxicity Data, Average, Mean percentage relative to DMSO control: Average of Exp 1 (SMW491) and Exp 2 (SMW492)

Q: Which “Percentage Infection Relative to Appropriate DMSO Control with Avg Background Subtraction” value (SARS2; Exp 1 (SMW475), 5 uM, single well) does the source give for `COC(=O)c1csc(CN(CCN(C)C)Cc2cccs2)c1` [SILCS29] here?
A: Its value is 1.25% and −0.49% and 2.25%.

Q: What about the “Percentage Infection Relative to Appropriate DMSO Control with Avg Background Subtraction” value (SARS2; Exp 1 (SMW475), 10 uM, single well) of the same compound?
A: The value was 57.43% and 82.75% and 79.22%.

Q: What about the “Percentage Infection Relative to Appropriate DMSO Control with Avg Background Subtraction” value (SARS2; Exp 1 (SMW475), 25 uM, single well) of the same compound?
A: Its value is 13.47% and 21.51% and 26.64%.

Q: What about the “Percentage Infection Relative to Appropriate DMSO Control with Avg Background Subtraction” value (SARS2; Exp 1 (SMW475), 50 uM, single well) of the same compound?
A: The value was 13.24% and 10.68% and 10.82%.

Q: What about the “Percentage Infection Relative to Appropriate DMSO Control with Avg Background Subtraction” value (SARS2; Exp 2 (SMW477), 1 uM, single well) of the same compound?
A: The value was 96.79% and 118.82% and 112.77%.

Q: And the “Percentage Infection Relative to Appropriate DMSO Control with Avg Background Subtraction” value (SARS2; Exp 2 (SMW477), 5 uM, single well)?
A: The value was 84.54% and 117.80% and 116.09%.

Q: And the “Percentage Infection Relative to Appropriate DMSO Control with Avg Background Subtraction” value (SARS2; Exp 2 (SMW477), 10 uM, single well)?
A: The value was 78.23% and 124.37% and 115.30%.

Q: And the “Percentage Infection Relative to Appropriate DMSO Control with Avg Background Subtraction” value (SARS2; Exp 2 (SMW477), 50 uM, single well)?
A: Its value is 2.61% and 6.87% and 8.07%.

Q: And the “Percentage Infection Relative to Appropriate DMSO Control with Avg Background Subtraction” value (SARS2; Exp 3 (SMW478), 1 uM, Greiner Celigo plates)?
A: The value was 97.82% and 84.39% and 100.08%.

Q: And the “Percentage Infection Relative to Appropriate DMSO Control with Avg Background Subtraction” value (SARS2; Exp 3 (SMW478), 5 uM, Greiner Celigo plates)?
A: The value was 95.72% and 88.47% and 77.81%.

Q: And the “Percentage Infection Relative to Appropriate DMSO Control with Avg Background Subtraction” value (SARS2; Exp 3 (SMW478), 10 uM, Greiner Celigo plates)?
A: The value was 99.71% and 91.75% and 106.45%.

Q: And the “Percentage Infection Relative to Appropriate DMSO Control with Avg Background Subtraction” value (SARS2; Exp 3 (SMW478), 50 uM, Greiner Celigo plates)?
A: The value was 6.88% and −1.19% and −1.09%.

Q: And the “Percentage Inhibition Average 1 μM” value (SARS2)?
A: Its value is 15.78%.

Q: What about the “Screening data (Relative infection to DMSO controls) Average 1 μM” value (SARS2) of the same compound?
A: Its value is 84.22.

Q: And the “Percentage Inhibition Average 5 μM” value (SARS2)?
A: The value was 35.17%.

Q: And the “Screening data (Relative infection to DMSO controls) Average 5 μM” value (SARS2)?
A: Its value is 64.83.

Q: What about the “Percentage Inhibition Average 10 μM” value (SARS2) of the same compound?
A: The value was 7.20%.

Q: And the “Screening data (Relative infection to DMSO controls) Average 10 μM” value (SARS2)?
A: Its value is 92.80.

Q: And the “Percentage Inhibition Average 25 μM” value (SARS2)?
A: The value was 67.28%.

Q: And the “Screening data (Relative infection to DMSO controls) Average 25 μM” value (SARS2)?
A: The value was 32.72.

Q: And the “Percentage Inhibition Average 50 μM” value (SARS2)?
A: The value was 93.68%.

Q: What about the “Screening data (Relative infection to DMSO controls) Average 50 μM” value (SARS2) of the same compound?
A: Its value is 6.32.

Q: And the “Average (relative infection to DMSO over the 5 tested concentrations)” value (SARS2)?
A: Its value is 56.18.

Q: What about the “Infection Data, Average, Mean” value (SARS2; average of Exp 1-3 (SMW475, SMW477, SMW478), n 9, 1 uM) of the same compound?
A: Its value is 84.22%.

Q: And the “Infection Data, Average, Mean” value (SARS2; average of Exp 1-3 (SMW475, SMW477, SMW478), n 9, 5 uM)?
A: The value was 64.83%.

Q: And the “Infection Data, Average, Mean” value (SARS2; average of Exp 1-3 (SMW475, SMW477, SMW478), n 9, 10 uM)?
A: The value was 92.80%.

Q: What about the “Infection Data, Average, Mean” value (SARS2; average of Exp 1-3 (SMW475, SMW477, SMW478), n 9, 25 uM) of the same compound?
A: The value was 32.72%.

Q: What about the “Infection Data, Average, Mean” value (SARS2; average of Exp 1-3 (SMW475, SMW477, SMW478), n 9, 50 uM) of the same compound?
A: Its value is 6.32%.

Q: And the “Relative cell count to DMSO controls, Average 1 μM” value (cells (nuclei count))?
A: Its value is 104.12.

Q: What about the “Relative cell count to DMSO controls, Average 5 μM” value (cells (nuclei count)) of the same compound?
A: Its value is 110.81.

Q: What about the “Relative cell count to DMSO controls, Average 10 μM” value (cells (nuclei count)) of the same compound?
A: Its value is 90.99.

Q: What about the “Relative cell count to DMSO controls, Average 25 μM” value (cells (nuclei count)) of the same compound?
A: The value was 101.15.

Q: And the “Relative cell count to DMSO controls, Average 50 μM” value (cells (nuclei count))?
A: Its value is 67.81.

Q: And the “Toxicity Data, Average, Mean” value (cells (nuclei count); n 9, 1 uM)?
A: The value was 104.12%.

Q: What about the “Toxicity Data, Average, Mean” value (cells (nuclei count); n 9, 5 uM) of the same compound?
A: Its value is 110.81%.

Q: What about the “Toxicity Data, Average, Mean” value (cells (nuclei count); n 9, 10 uM) of the same compound?
A: The value was 90.99%.

Q: What about the “Toxicity Data, Average, Mean” value (cells (nuclei count); n 9, 25 uM) of the same compound?
A: Its value is 101.15%.

Q: What about the “Toxicity Data, Average, Mean” value (cells (nuclei count); n 9, 50 uM) of the same compound?
A: The value was 67.81%.

Q: What about the “Relative cell count to DMSO controls, Average (for correlation analysis)” value (cells (nuclei count)) of the same compound?
A: The value was 94.98.

Q: Which results are given for `COc1ccc(CNCCc2ccccc2F)c(OCC(O)CN2CCN(C)CC2)c1` (racemic) [SILCS41]?
A: SARS2 antiviral activity (SARS2): better activity than the original compound; also recorded: improved properties over UMB18g; Percentage Infection Relative to Appropriate DMSO Control with Avg Background Subtraction (SARS2; Exp 1 (SMW491), 1 uM, Nunc Celigo plates): 92.14% and 78.53%; Percentage Infection Relative to Appropriate DMSO Control with Avg Background Subtraction (SARS2; Exp 1 (SMW491), 5 uM, Nunc Celigo plates): 20.40% and 20.73%; Percentage Infection Relative to Appropriate DMSO Control with Avg Background Subtraction (SARS2; Exp 1 (SMW491), 10 uM, Nunc Celigo plates): 2.55% and 1.51%; Percentage Infection Relative to Appropriate DMSO Control with Avg Background Subtraction (SARS2; Exp 1 (SMW491), 25 uM, Nunc Celigo plates): 2.26% and 4.77%; Percentage Infection Relative to Appropriate DMSO Control with Avg Background Subtraction (SARS2; Exp 1 (SMW491), 50 uM, Nunc Celigo plates): 5.27% and 3.84%; Percentage Infection Relative to Appropriate DMSO Control with Avg Background Subtraction (SARS2; Exp 2 (SMW492), 1 uM, Nunc Celigo plates): 11.86% and 10.73%; Percentage Infection Relative to Appropriate DMSO Control with Avg Background Subtraction (SARS2; Exp 2 (SMW492), 5 uM, Nunc Celigo plates): 15.34% and 12.91%; Percentage Infection Relative to Appropriate DMSO Control with Avg Background Subtraction (SARS2; Exp 2 (SMW492), 10 uM, Nunc Celigo plates): 1.08% and 2.35%; Percentage Infection Relative to Appropriate DMSO Control with Avg Background Subtraction (SARS2; Exp 2 (SMW492), 25 uM, Nunc Celigo plates): 1.58% and 3.10%; Percentage Infection Relative to Appropriate DMSO Control with Avg Background Subtraction (SARS2; Exp 2 (SMW492), 50 uM, Nunc Celigo plates): 8.27% and 6.25%; Percentage Inhibition Average 1 μM (SARS2): 51.68%; Screening data (Relative infection to DMSO controls) Average 1 μM (SARS2): 48.32; Percentage Inhibition Average 5 μM (SARS2): 82.65%; Screening data (Relative infection to DMSO controls) Average 5 μM (SARS2): 17.35; Percentage Inhibition Average 10 μM (SARS2): 98.13%; Screening data (Relative infection to DMSO controls) Average 10 μM (SARS2): 1.87; Percentage Inhibition Average 25 μM (SARS2): 97.07%; Screening data (Relative infection to DMSO controls) Average 25 μM (SARS2): 2.93; Percentage Inhibition Average 50 μM (SARS2): 94.09%; Screening data (Relative infection to DMSO controls) Average 50 μM (SARS2): 5.91; Average (relative infection to DMSO over the 5 tested concentrations) (SARS2): 15.28; Infection Data, Average, Mean (SARS2; average of Exp 1-2 (SMW491, SMW492), n 4, 1 uM): 48.32%; Infection Data, Average, Mean (SARS2; average of Exp 1-2 (SMW491, SMW492), n 4, 5 uM): 17.35%; Infection Data, Average, Mean (SARS2; average of Exp 1-2 (SMW491, SMW492), n 4, 10 uM): 1.87%; Infection Data, Average, Mean (SARS2; average of Exp 1-2 (SMW491, SMW492), n 4, 25 uM): 2.93%; Infection Data, Average, Mean (SARS2; average of Exp 1-2 (SMW491, SMW492), n 4, 50 uM): 5.91%; Relative cell count to DMSO controls, Average 1 μM (cells (nuclei count)): 118.33; Relative cell count to DMSO controls, Average 5 μM (cells (nuclei count)): 139.55; Relative cell count to DMSO controls, Average 10 μM (cells (nuclei count)): 124.03; Relative cell count to DMSO controls, Average 25 μM (cells (nuclei count)): 118.34; Relative cell count to DMSO controls, Average 50 μM (cells (nuclei count)): 101.49; Toxicity Data, Average, Mean percentage relative to DMSO control (cells (nuclei count); n=4, 1 uM): 118.33%; Toxicity Data, Average, Mean percentage relative to DMSO control (cells (nuclei count); n=4, 5 uM): 139.55%; Toxicity Data, Average, Mean percentage relative to DMSO control (cells (nuclei count); n=4, 10 uM): 124.03%; Toxicity Data, Average, Mean percentage relative to DMSO control (cells (nuclei count); n=4, 25 uM): 118.34%; Toxicity Data, Average, Mean percentage relative to DMSO control (cells (nuclei count); n=4, 50 uM): 101.49%; Relative cell count to DMSO controls, Average (for correlation analysis) (cells (nuclei count)): 120.35
